Data reported in patent US4468511A, “C-20- And C-23-Modified macrolide derivatives” (Eli Lilly and Company, priority 1983, dated 1984).
Converted amounts (≈) assume the structure as drawn. Where two headings read alike, the source gives them in different places.

Experiments:
Escherichia coli EC14 = test: MIC, standard agar-dilution assay; format: cell-based; settings: agar-dilution; Escherichia coli EC14; read-out: MIC
Experimental: (§1) Certain of the derivatives are active against some gram-negative bacteria, such as Pasteurella species. The MIC's in Table II were determined by standard agar-dilution assays. The MIC's in Table III were obtained using a conventional broth-dilution microtiter test.

Escherichia coli TEM = test: MIC, standard agar-dilution assay; format: cell-based; settings: agar-dilution; Escherichia coli TEM; read-out: MIC
Method in brief: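 Antibacterial activity toward the gram-negative organism Escherichia coli was assessed by conventional agar dilution. The MIC, reported in ug/mL, is the minimum compound concentration on agar that prevents growth.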

[1] = system: Klebsiella pneumoniae KAE; test: MIC, standard agar-dilution assay; format: cell-based; settings: agar-dilution; Klebsiella pneumoniae KAE; read-out: MIC
Method in brief: (§2)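 Two formats were used. Broth dilution in microtiter plates served for Pasteurella and Mycoplasma, while agar dilution served for Klebsiella.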

[2] = system: Klebsiella pneumoniae X26; test: MIC, standard agar-dilution assay; format: cell-based
Method in brief: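 Method depends on organism. Klebsiella pneumoniae was assayed on agar. Pasteurella spp. and Mycoplasma gallisepticum were assayed in broth microtiter dilution.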

[3] = system: Staphylococcus aureus V41; test: MIC, standard agar-dilution assay; format: cell-based
Experimental: as §1

[4] = system: Staphylococcus aureus X1.1; test: MIC, standard agar-dilution assay; format: cell-based; settings: Staphylococcus aureus, X1.1
Method in brief: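 A standard agar-dilution assay was used to test compounds against the Staphylococcus aureus isolate X1.1. Bacterial growth on agar with different compound concentrations was assessed, and the minimum inhibitory concentration was recorded in ug/mL.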

[5] = system: Streptococcus Group D X66; test: MIC, standard agar-dilution assay; format: cell-based; settings: agar-dilution; Streptococcus Group D X66; read-out: MIC
Experimental: as §1

[6] = system: Streptococcus pneumoniae Park I; test: MIC, standard agar-dilution assay; format: cell-based; settings: Streptococcus pneumoniae
Experimental: as §1

[7] = system: Streptococcus pyogenes 9960; test: MIC, standard agar-dilution assay; format: cell-based
Experimental: as §1

[8] = system: Streptococcus pyogenes C203; test: MIC, standard agar-dilution assay; format: cell-based
Experimental: as §1

[9] = system: Haemophilus influenzae 76; test: MIC, standard agar-dilution assay; format: cell-based
Experimental: (§3) The MIC's in Table II were determined by standard agar-dilution assays. The MIC's in Table III were obtained using a conventional broth-dilution microtiter test.

[10] = system: Haemophilus influenzae C.L.; test: MIC, standard agar-dilution assay; format: cell-based
Experimental: as §3

[11] = system: Staphylococcus aureus X400; test: MIC, standard agar-dilution assay; format: cell-based
Experimental: as §3

[12] = system: Staphylococcus epidermidis EPI2; test: MIC, standard agar-dilution assay; format: cell-based; settings: Staphylococcus epidermidis, EPI2
Experimental: as §3

[13] = system: Staphylococcus aureus S13E; test: microbe, parasite or virus in culture; format: cell-based
Experimental: as §3

[14] = system: Staphylococcus epidermidis EPI1; test: microbe, parasite or virus in culture; format: cell-based
Experimental: as §3

[15] = system: Mycoplasma gallisepticum 34159; test: MIC, conventional broth-dilution microtiter test; format: cell-based; settings: Mycoplasmoides gallisepticum; broth-dilution microtiter; Mycoplasma gallisepticum 34159, Resistant strain; read-out: MIC
Method in brief: as §2

[16] = system: Mycoplasma gallisepticum 41313; test: MIC, conventional broth-dilution microtiter test; format: cell-based; settings: Mycoplasmoides gallisepticum; broth-dilution microtiter; Mycoplasma gallisepticum 41313, Resistant strain; read-out: MIC
Method in brief: as §2

Mycoplasma gallisepticum = test: MIC, conventional broth-dilution microtiter test; format: cell-based; settings: Mycoplasmoides gallisepticum
Method in brief: as §2

Mycoplasma hyorhinis = test: MIC, conventional broth-dilution microtiter test; format: cell-based; settings: broth-dilution microtiter; Mycoplasma hyorhinis; read-out: MIC
Method in brief: as §2

Mycoplasma synoviae = test: MIC, conventional broth-dilution microtiter test; format: cell-based; settings: Mycoplasmopsis synoviae
Method in brief: as §2

[17] = system: Pasteurella hemolytica 22C; test: MIC, conventional broth-dilution microtiter test; format: cell-based; settings: broth-dilution microtiter; Pasteurella hemolytica 22C; read-out: MIC
Method in brief: as §2

[18] = system: Pasteurella hemolytica 23C; test: MIC, conventional broth-dilution microtiter test; format: cell-based; settings: broth-dilution microtiter; Pasteurella hemolytica 23C; read-out: MIC
Method in brief: as §2

[19] = system: Pasteurella hemolytica 41D; test: MIC, conventional broth-dilution microtiter test; format: cell-based; settings: broth-dilution microtiter; Pasteurella hemolytica 41D; read-out: MIC
Method in brief: as §2

[20] = system: Pasteurella multocida 17E; test: MIC, conventional broth-dilution microtiter test; format: cell-based; settings: broth-dilution microtiter; Pasteurella multocida 17E, Bovine isolate; read-out: MIC
Method in brief: as §2

[21] = system: Pasteurella multocida 22A; test: MIC, conventional broth-dilution microtiter test; format: cell-based; settings: broth-dilution microtiter; Pasteurella multocida 22A; read-out: MIC
Method in brief: as §2

[22] = system: Pasteurella multocida 40G; test: MIC, conventional broth-dilution microtiter test; format: cell-based; settings: broth-dilution microtiter; Pasteurella multocida 40G; read-out: MIC
Method in brief: as §2

[23] = system: Pasteurella multocida 60A; test: MIC, conventional broth-dilution microtiter test; format: cell-based; settings: broth-dilution microtiter; Pasteurella multocida 60A, Avian isolate; read-out: MIC
Method in brief: as §2

[24] = system: Pasteurella multocida 68C; test: MIC, conventional broth-dilution microtiter test; format: cell-based; settings: broth-dilution microtiter; Pasteurella multocida 68C; read-out: MIC
Method in brief: as §2

Staphylococcus aureus = test: MIC, conventional broth-dilution microtiter test; format: cell-based
Experimental: as §1

Streptococcus sp. 80 = test: MIC, conventional broth-dilution microtiter test; format: cell-based
Experimental: as §1

[25] = system: Streptococcus pyogenes C203; test: Protection of mice experimentally infected with S. pyogenes C203; format: in vivo
Experimental: Some of the derivatives of this invention have shown in vivo antimicrobial activity against experimentally-induced infections in laboratory animals. When two doses of test compound were administered to mice experimentally infected with S. pyogenes C203, the activity observed was measured as an ED50 value [effective dose in mg/kg to protect 50% of the test animals: see Warren Wick, et al., J. Bacteriol. 81, 233-235 (1961)].

[26] = C203, mice, oral, mg/kg × 2, doses given 1 and 4 hours postinfection, read-out: ED50 Oral

Structure (SMILES)	MIC (Escherichia coli EC14)	MIC (Escherichia coli TEM)	MIC [1]	MIC [4]	MIC [5]	MIC [6]	MIC [12]	MIC [13]	MIC [15]	MIC [16]	MIC (Mycoplasma gallisepticum)	MIC (Mycoplasma hyorhinis)	MIC [17]	MIC [18]	MIC [19]	MIC [20]	MIC [21]	MIC [22]	MIC [23]	MIC [24]	other results
CCC1CC(C)C(=O)C=CC(C)=CC(CSc2ccccc2)C(CC)OC(=O)CC(O)C(C)C1OC1OC(C)C(O)C(N(C)C)C1O (stereo not drawn) [Compound 42, 23-Phenylthio-20,23-dideoxy-20-dihydro-OMT]	> 128 µg/mL	> 128 µg/mL	> 128 µg/mL	1 µg/mL (≈ 1.48 µM)	0.5 µg/mL (≈ 0.74 µM)	0.12 µg/mL (≈ 0.178 µM)	1 µg/mL (≈ 1.48 µM)	1 µg/mL (≈ 1.48 µM)	25 µg/mL (≈ 37 µM)	25 µg/mL (≈ 37 µM)	6.25 µg/mL (≈ 9.25 µM)	25 µg/mL (≈ 37 µM)	25 µg/mL (≈ 37 µM)	25 µg/mL (≈ 37 µM)	25 µg/mL (≈ 37 µM)	25 µg/mL (≈ 37 µM)	25 µg/mL (≈ 37 µM)	25 µg/mL (≈ 37 µM)	12.5 µg/mL (≈ 18.5 µM)	25 µg/mL (≈ 37 µM)	MIC ([2]; agar-dilution, Klebsiella pneumoniae X26, read-out: MIC): 16 µg/mL (≈ 23.7 µM); MIC ([3]; agar-dilution, Staphylococcus aureus V41, Penicillin-resistant strain, read-out: MIC): 0.5 µg/mL (≈ 0.74 µM); MIC [7]; 9960: 1 µg/mL (≈ 1.48 µM); MIC ([8]; Streptococcus pyogenes, C203): 1 µg/mL (≈ 1.48 µM); MIC ([9]; Haemophilus influenzae, 76): 16 µg/mL (≈ 23.7 µM); MIC ([10]; Haemophilus influenzae): 16 µg/mL (≈ 23.7 µM); MIC ([11]; Staphylococcus aureus, X400): 1 µg/mL (≈ 1.48 µM); MIC ([14]; agar-dilution, Staphylococcus epidermidis EPI1, read-out: MIC): 0.5 µg/mL (≈ 0.74 µM); MIC (Mycoplasma synoviae): 6.25 µg/mL (≈ 9.25 µM); MIC (Staphylococcus aureus; broth-dilution microtiter, read-out: MIC): 1.56 µg/mL (≈ 2.31 µM); MIC (Streptococcus sp. 80; broth-dilution microtiter, Streptococcus sp. 80, read-out: MIC): 1.56 µg/mL (≈ 2.31 µM); ED50 [25, 26]: 78 mg/kg; ED50 ([25]; C203, sc, read-out: ED50 Subcutaneous): > 25 mg/kg
CCC1CC(C)C(=O)C=CC(C)=CC(COc2cccc(N(C)C)c2)C(CC)OC(=O)CC(O)C(C)C1OC1OC(C)C(O)C(N(C)C)C1O (stereo not drawn) [Compound 44, 23-O-(m-Dimethylaminophenyl)-20-deoxy-20-dihydro-OMT]	> 128 µg/mL	> 128 µg/mL	> 128 µg/mL	1 µg/mL (≈ 1.42 µM)	2 µg/mL (≈ 2.85 µM)	0.5 µg/mL (≈ 0.711 µM)	0.5 µg/mL (≈ 0.711 µM)	1 µg/mL (≈ 1.42 µM)	12.5 µg/mL (≈ 17.8 µM)	12.5 µg/mL (≈ 17.8 µM)	3.12 µg/mL (≈ 4.44 µM)	50 µg/mL (≈ 71.1 µM)	> 50 µg/mL	> 50 µg/mL	> 50 µg/mL	50 µg/mL (≈ 71.1 µM)	50 µg/mL (≈ 71.1 µM)	25 µg/mL (≈ 35.6 µM)	25 µg/mL (≈ 35.6 µM)	25 µg/mL (≈ 35.6 µM)	MIC ([2]; Klebsiella pneumoniae, X26): 32 µg/mL (≈ 45.5 µM); MIC ([3]; Staphylococcus aureus, V41): 1 µg/mL (≈ 1.42 µM); MIC ([7]; agar-dilution, Streptococcus 9960, read-out: MIC): 2 µg/mL (≈ 2.85 µM); MIC ([8]; agar-dilution, Streptococcus pyogenes C203, read-out: MIC): 4 µg/mL (≈ 5.69 µM); MIC ([9]; agar-dilution, Haemophilus influenzae 76, Ampicillin-resistant strain, read-out: MIC): 16 µg/mL (≈ 22.8 µM); MIC ([10]; agar-dilution, Haemophilus influenzae C.L., Ampicillin-sensitive strain, read-out: MIC): 16 µg/mL (≈ 22.8 µM); MIC ([11]; agar-dilution, Staphylococcus aureus X400, Methicillin-resistant strain, read-out: MIC): 2 µg/mL (≈ 2.85 µM); MIC ([14]; Staphylococcus epidermidis, EPI1): 1 µg/mL (≈ 1.42 µM); MIC (Mycoplasma synoviae; broth-dilution microtiter, Mycoplasma synoviae, read-out: MIC): 12.5 µg/mL (≈ 17.8 µM); MIC (Staphylococcus aureus): 1.56 µg/mL (≈ 2.22 µM); MIC (Streptococcus sp. 80; Streptococcus, SP.80): 3.12 µg/mL (≈ 4.44 µM); ED50 [25, 26]: > 50 mg/kg; ED50 ([25]; C203, sc, mice, subcutaneous, mg/kg × 2, doses given 1 and 4 hours postinfection, read-out: ED50 Subcutaneous): > 10 mg/kg
